Assay results as given in patent US5242783A, “Photographic material and process” (Eastman Kodak Company, priority 1992, dated 1993).

Test: Deblocking of ester in pH 10.0 carbonate buffer with hydroxylamine (A+C), reaction half-life and rate enhancement
Assay type: physicochemical
Conditions: for reactivity with hydroxylamine vs comparisons: from Table I; for Ratio of the A+B half-life to the A+C half-life (rate enhancement): pH 10.0, 25° C.
Protocol: Model studies were conducted on esters E-1 through E-6 to determine the possible rate enhancement which could be attained by using a dinucleophile rather than a mononucleophile to promote the removal from a phenolic moiety of a blocking group of this invention. Aqueous solutions A, B, and C, each containing 50% by volume of acetonitrile were prepared as follows (a separate solution A for each ester):
Solution A: 2.5 × 10^-4 M ester (or 2.5 × 10^-5 M E-
Solution B: 25% by volume carbonate buffer
(pH 10.0, ionic strength 0.75);
Solution C: Solution B with added 0.05M
Then equal volumes of A and B (or A and C) were mixed at 25° C. to give a pH 10.0 solution and the reaction was followed by spectrophotometric measurements of the phenol (290 nm) or p-nitrophenol (402 nm) produced with time. In each case a reaction half-life (t1/2) was calculated from the equation t/1/2 =1n(2)/k, where 1n(2) is the natural logarithm of 2 and k is the pseudo first-order rate constant calculated for the reaction. Smaller half-lives thus indicate more rapid reactions. The A+B combination provides an alkaline solution in which the main reactant is hydroxide ion (a mononucleophile) while in the A.C combination the active reactant is hydroxylamine (a dinucleophile). A ratio of the A+B half-life to the A+C half-life provides a measure of rate enhancement due to participation of hydroxylamine in the deblocking reaction.

SMILES	Ratio of the A+B half-life to the A+C half-life (rate enhancement)	reactivity with hydroxylamine vs comparisons
CN(C(=O)N1CCC(=O)C(C)(C(=O)Oc2ccc([N+](=O)[O-])cc2)C1)c1ccccc1 (centres unmarked) [Example E-1]	3.8 × 10^4	much more reactive with the dinucleophile hydroxylamine than are the comparisons
COc1ccc(C(=O)N2CCC(=O)C(C)(C(=O)Oc3ccc([N+](=O)[O-])cc3)C2)cc1 (centres unmarked) [Example E-2]	2.9 × 10^4	much more reactive with the dinucleophile hydroxylamine than are the comparisons
CC1(C(=O)Oc2ccc([N+](=O)[O-])cc2)CN(C(=O)OCc2ccc([N+](=O)[O-])cc2)CCC1=O (centres unmarked) [Example E-3]	3.6 × 10^4	–

Now from value to compound, other results behind:

Ratio of the A+B half-life to the A+C half-life (rate enhancement)	SMILES	reactivity with hydroxylamine vs comparisons
2.3 × 10^5	CC1(C(=O)Oc2ccc([N+](=O)[O-])cc2)CCCCC1=O (centres unmarked) [Example E-4, reference compound]	–
3.7 × 10^4	CC(=O)C(C)(C)C(=O)Oc1ccccc1 [Example E-5, reference compound]	–
1.7 × 10^2	CC(=O)CC(C)(C)C(=O)Oc1ccccc1 [Example E-6, reference compound]	–
